Earlier results as cited in patent publication US8895065B2, “Single unit oral dose pharmaceutical composition comprising levodopa, carbidopa and entacapone or salts thereof” (Wockhardt Ltd., priority 2008, dated 2014).

solubility in water	Compound
slightly soluble	C[C@@](Cc1ccc(O)c(O)c1)(NN)C(=O)O [Carbidopa]
slightly soluble	N[C@@H](Cc1ccc(O)c(O)c1)C(=O)O [Levodopa, (−)-L-α-amino-β-(3,4-dihydroxybenzene)propanoic acid]
